# Assay results as given in US11198695B2, “Fused ring derivative having MGAT-2 inhibitory activity” (Shionogi & Co., Ltd., priority 2017, dated 2021).
# Molecular target: recombinant human MGAT2 (Homo sapiens (Human), UniProt Q3SYC2)
# Experiment: Measurement of human MGAT2 inhibitory activity
# Type: biochemical
# Conditions: read-out: IC50 (concentration exhibiting 50% enzyme inhibition), Table 52
# Procedure, shortened: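 RapidFire ESI-MS read-out of the diolein/diolein-d5 peak ratio gave % inhibition, with no-enzyme and full-enzyme wells as 100% and 0%. Reactions ran 1 h at room temperature at pH 7.4 (phosphate, 2 mmol/L DTT), using Flag-tagged human MGAT2 membranes from Sf9 cells and a substrate solution of 30 μmol/L 2-oleoylglycerol and 10 μmol/L oleoyl-CoA.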
# Chain of recombinant human MGAT2 (Q3SYC2 whole entry): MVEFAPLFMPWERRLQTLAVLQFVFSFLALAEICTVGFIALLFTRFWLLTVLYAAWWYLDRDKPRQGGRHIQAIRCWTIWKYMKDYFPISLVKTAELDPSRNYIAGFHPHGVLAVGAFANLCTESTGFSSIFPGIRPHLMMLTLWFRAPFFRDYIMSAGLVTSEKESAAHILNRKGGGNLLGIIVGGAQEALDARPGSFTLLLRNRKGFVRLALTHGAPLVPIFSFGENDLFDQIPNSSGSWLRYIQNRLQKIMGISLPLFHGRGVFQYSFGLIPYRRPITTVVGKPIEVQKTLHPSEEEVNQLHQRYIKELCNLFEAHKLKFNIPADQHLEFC
row,IC50 [nM],Structure (SMILES)
1,2.4,CS(=O)(=O)CC(=O)Nc1c2c(nn1CCCC(F)(F)F)C[C@]1(CCc3cc(OCCCC(F)(F)F)ccc31)NC2=O [Compound I-206]
2,150,Cc1ccccc1-n1nc2c(c1NC(=O)CS(C)(=O)=O)C(=O)N[C@@]1(CCc3cc(OCCCC(F)(F)F)ccc31)C2 [Compound I-180]
3,64,CCOCCS(=O)(=O)NC(=O)c1c2c(nn1CCC1CC1)C[C@]1(CCc3cc(OCC(F)(F)F)ccc31)NC2=O [Compound I-115]
4,780,CS(=O)(=O)CC(=O)Nc1c2c(nn1-c1cnccn1)C[C@@]1(CCc3cc(OCC(F)(F)F)ccc31)NC2=O [Compound I-271]
5,5.6,O=C(CC(F)(F)F)NCc1c2c(nn1CCC1CC1)C[C@]1(CCc3cc(OCC(F)(F)F)ccc31)NC2=O [Compound I-148]
6,70,O=C1N[C@@]2(CCc3cc(OCCCC(F)(F)F)ccc32)Cc2nn(CCC3CC3)c(C(=O)O)c21 [Compound I-9]
7,760,O=C1N[C@@]2(CCc3cc(OCC(F)(F)F)cc(F)c32)Cc2nn(-c3ccccn3)c(-c3nnn[nH]3)c21 [Compound I-107]
8,40.5,CS(=O)(=O)CC(=O)Nc1c2c(nn1-c1cc(Cl)cc(Cl)c1)C[C@]1(CCc3cc(OCC(F)(F)F)ccc31)NC2=O [Compound I-128]
9,55.5,CS(=O)(=O)CC(=O)Nc1c2c(nn1-c1cccc(F)c1)C[C@]1(CCc3cc(OCC(F)(F)F)ccc31)NC2=O [Compound I-123]
10,190,CS(=O)(=O)NCc1c2c(nn1CCC1CC1)C[C@]1(CCc3cc(OCCCC(F)(F)F)ccc31)NC2=O [Compound I-22]
11,39,CS(=O)(=O)CC(=O)Nc1c2c(nn1CCC1CC1)C[C@]1(CCc3cc(F)cc(F)c31)NC2=O [Compound I-178]
12,9.1,O=C(Nc1c2c(nn1CCC1CC1)C[C@]1(CCc3cc(OCCCC(F)(F)F)ccc31)NC2=O)c1ccno1 [Compound I-18]
13,16,CS(=O)(=O)CC(=O)Nc1c2c(nn1CCc1ccc(F)cc1)C[C@]1(CCc3cc(OCC(F)(F)F)ccc31)NC2=O [Compound I-261]
14,3.5,CS(=O)(=O)CC(=O)Nc1c2c(nn1-c1ccc(C(F)(F)F)cn1)C[C@]1(CCc3cc(F)cc(F)c31)NC2=O [Compound I-285]
15,28,CS(=O)(=O)CC(=O)Nc1c2c(nn1CCc1ccccc1)C[C@]1(CCc3cc(OCC(F)(F)F)ccc31)NC2=O [Compound I-191]
16,265,CS(=O)(=O)CC(=O)Nc1c2c(nn1CCN1CCCC1)C[C@]1(CCc3cc(OCCCC(F)(F)F)ccc31)NC2=O [Compound I-47]

row,IC50 [nM],Structure (SMILES)
1,160,COc1cccc(C(=O)Nc2c3c(nn2CCC2CC2)C[C@]2(CCc4cc(OCCCC(F)(F)F)ccc42)NC3=O)c1 [Compound I-17]
2,860,O=C(Nc1c2c(nn1CCC1CC1)C[C@]1(CCc3cc(OCC(F)(F)F)ccc31)NC2=O)c1ccccn1 [Compound I-79]
3,430,CC(C)S(=O)(=O)NCc1c2c(nn1CCC1CC1)C[C@]1(CCc3cc(OCC(F)(F)F)ccc31)NC2=O [Compound I-141]
4,14,CS(=O)(=O)CC(=O)Nc1c2c(nn1CCn1cccn1)C[C@]1(CCc3cc(OCCCC(F)(F)F)ccc31)NC2=O [Compound I-59]
5,27,CS(=O)(=O)CC(=O)Nc1c2c(nn1CCC1CC1)C[C@]1(CCc3cc(Br)ccc31)NC2=O [Compound I-36]
6,86,CS(=O)(=O)CC(=O)Nc1c2c(nn1-c1ccccn1)C[C@]1(CCc3cc(F)cc(F)c31)NC2=O [Compound I-175]
7,3.9,CS(=O)(=O)CC(=O)Nc1c2c(nn1-c1ccc(C#N)cc1)C[C@]1(CCc3cc(OCCCC(F)(F)F)ccc31)NC2=O [Compound I-44]
8,4.6,Cc1ccc(-n2nc3c(c2NC(=O)CS(C)(=O)=O)C(=O)N[C@]2(CCc4cc(OCC(F)(F)F)ccc42)C3)cc1 [Compound I-266]
9,17,CS(=O)(=O)CC(=O)NCc1c2c(nn1CCC1CC1)C[C@]1(CCc3cc(OCCCC(F)(F)F)ccc31)NC2=O [Compound I-21]
10,60,Cc1nnsc1C(=O)Nc1c2c(nn1CCC1CC1)C[C@]1(CCc3cc(OCC(F)(F)F)ccc31)NC2=O [Compound I-221]
11,9.8,CS(=O)(=O)CC(=O)Nc1c2c(nn1-c1ccccn1)C[C@@]1(CCc3cc(OCC(F)(F)F)cc(F)c31)NC2=O [Compound I-169]
12,37.5,O=C(Nc1c2c(nn1CCC1CC1)C[C@]1(CCc3cc(OCC(F)(F)F)ccc31)NC2=O)c1cccnc1 [Compound I-78]
13,960,O=C1N[C@@]2(CCc3cc(OCC(F)(F)F)ccc32)Cc2nn(CCC3CC3)c(C(=O)NC3CCOC3)c21 (stereo partly shown) [Compound I-86]
14,2.1,CS(=O)(=O)CC(=O)Nc1c2c(nn1-c1ccc(F)cn1)C[C@@]1(CCc3cc(OCC(F)(F)F)ccc31)NC2=O [Compound I-211]
15,59,CC1(C)CCC(Cn2nc3c(c2NC(=O)CS(C)(=O)=O)C(=O)N[C@@]2(CCc4cc(OCC(F)(F)F)ccc42)C3)O1 (stereo partly shown) [Compound I-259]

# Same assay, conditions: read-out: IC50 (concentration exhibiting 50% enzyme inhibition), Table 53
row,IC50 [nM],Structure (SMILES)
1,7.1,CS(=O)(=O)CC(=O)Nc1c2c(nn1CCC1CC1)C[C@@]1(CCc3cc(OC4CC4)ccc31)NC2=O [II-98]
2,16,CS(=O)(=O)CC(=O)Nc1c2c(nn1CCC1CC1)CC1(CN(c3ccc(C(F)(F)F)cc3)C1)NC2=O [II-58]
3,2.63,CS(=O)(=O)CC(=O)Nc1c2c(nn1-c1ccc(C#N)cn1)C[C@]1(NC2=O)c2ccc(OCC(F)(F)F)cc2CC1(F)F [II-87]
4,73.6,Cc1ccc(-n2nc3c(c2C(=O)NCCS(C)(=O)=O)C(=O)N[C@@]2(CCc4cc(OCC(F)(F)F)ccc42)C3)nc1 [II-199]
5,5.86,Cc1ccc(-n2nc3c(c2NC(=O)CS(C)(=O)=O)C(=O)N[C@](C)(c2ccc(N4CC(F)(F)C4)cc2F)C3)nc1 [II-177]
6,21.7,COCCCNC(=O)c1c2c(nn1-c1ccc(C#N)cn1)C[C@]1(CCc3cc(OCC(F)(F)F)ccc31)NC2=O [II-123]
7,97.8,Cc1ccc(-n2nc3c(c2C(=O)NCC2(C#N)CC2)C(=O)N[C@@]2(CCOc4cc(OCC(F)(F)F)ccc42)C3)nc1 [II-231]
8,7.55,Cc1ccc(-n2nc3c(c2NC(=O)CS(C)(=O)=O)C(=O)N[C@@]2(CCc4cc(Cl)ccc42)C3)nc1 [II-164]
9,2.21,CS(=O)(=O)CC(=O)Nc1c2c(nn1-c1ccc(F)c(F)c1)C[C@]1(CCOc3cc(C4CC4)ccc31)NC2=O [II-224]
10,4.06,CC(F)(F)CNC(=O)c1c2c(nn1-c1ccc(C#N)cn1)C[C@]1(CCc3cc(OCC(F)(F)F)ccc31)NC2=O [II-184]
11,25.4,CS(=O)(=O)CC(=O)Nc1c2c(nn1-c1ccccc1)C[C@]1(CCc3cc(OCC(F)(F)F)ccc31)NC2=O [II-175]
12,2.92,CC1(CNC(=O)c2c3c(nn2-c2ccc(C#N)cn2)C[C@]2(CCc4cc(OCC(F)(F)F)ccc42)NC3=O)COC1 [II-186]
13,8.88,C[C@@]1(c2ccc(OCC(F)(F)F)cc2F)Cc2nn(-c3ccc(F)c(F)c3)c(NC(=O)CS(C)(=O)=O)c2C(=O)N1 [II-96]
14,4.29,C[C@@]1(c2ccc(OCC(F)(F)F)cc2F)Cc2nn(-c3ccc(C#N)cn3)c(NC(=O)CS(C)(=O)=O)c2C(=O)N1 [II-95]
15,16.7,Cn1c2c(c(NC(=O)CS(C)(=O)=O)c1-c1ccccc1)C(=O)N[C@@]1(CCc3cc(OCC(F)(F)F)ccc31)C2 [II-61]
16,35.5,N#CCCNC(=O)c1c2c(nn1-c1ccc(C#N)cn1)C[C@]1(CCc3cc(OCC(F)(F)F)ccc31)NC2=O [II-183]
17,3.96,N#Cc1ccc(-n2nc3c(c2C(=O)NCC2(CO)CCC2)C(=O)N[C@@]2(CCc4cc(OCC(F)(F)F)ccc42)C3)nc1 [II-116]

row,IC50 [nM],Structure (SMILES)
1,6.1,CS(=O)(=O)CC(=O)Nc1c2c(nn1-c1ccc(C#N)cn1)C[C@]1(CCc3c1ccc(OCC(F)(F)F)c3F)NC2=O [II-163]
2,9.5,COCCCn1nc2c(c1NC(=O)CS(C)(=O)=O)C(=O)N[C@@]1(CCOc3cc(OCC(F)(F)F)ccc31)C2 [II-26]
3,5.72,Cc1ccc(-n2nc3c(c2NC(=O)CS(C)(=O)=O)C(=O)N[C@](C)(c2ccc(OCC(F)F)cc2F)C3)nc1 [II-206]
4,14,CS(=O)(=O)CC(=O)Nc1c2c(nn1-c1ccc(C#N)cn1)CC1(CN(c3ccc(C(F)(F)F)cc3F)C1)NC2=O [II-53]
5,15,Cc1ccc(-n2nc3c(c2C(=O)NS(C)(=O)=O)C(=O)N[C@@]2(CCc4cc(OCC(F)(F)F)ccc42)C3)nc1 [II-238]
6,91.2,N#Cc1ccc(-n2nc3c(c2C(=O)NCC2(C(F)(F)F)CC2)C(=O)N[C@@]2(CCc4cc(OCC(F)(F)F)ccc42)C3)nc1 [II-191]
7,33.1,COCCS(=O)(=O)NC(=O)c1c2c(nn1-c1ccc(C)cn1)C[C@]1(CCc3cc(OCC(F)(F)F)ccc31)NC2=O [II-211]
8,1.34,CNS(=O)(=O)CC(=O)Nc1c2c(nn1-c1ccc(C)cn1)C[C@]1(CCOc3cc(OCC(F)(F)F)ccc31)NC2=O [II-271]
9,93,O=C(COC(F)(F)F)Nc1c2c(nn1CCC1CC1)C[C@]1(CCc3cc(OCC(F)(F)F)ccc31)NC2=O [II-60]
10,66,COC1CN(c2ccc3c(c2)CC[C@]32Cc3nn(-c4ccc(C#N)cn4)c(NC(=O)CS(C)(=O)=O)c3C(=O)N2)C1 [II-57]
11,37,CS(=O)(=O)CC(=O)Nc1c2c(nn1-c1ccc(C#N)cn1)C[C@]1(CCc3ccccc31)NC2=O [II-52]
12,20,CS(=O)(=O)CC(=O)Nc1c2c(nn1-c1ccncn1)C[C@]1(CCOc3cc(OCC(F)(F)F)ccc31)NC2=O [II-7]
13,68.9,N#Cc1ccc(-n2nc3c(c2C(=O)NS(=O)(=O)CCC(F)(F)F)C(=O)N[C@@]2(CCc4cc(OCC(F)(F)F)ccc42)C3)nc1 [II-217]
14,3.94,CNS(=O)(=O)CC(=O)Nc1c2c(nn1-c1ccc(C#N)cn1)C[C@@]1(CCc3cc(OCC(F)(F)F)ccc31)NC2=O [II-70]
15,38,CS(=O)(=O)CC(=O)Nc1c2c(nn1-c1ccc(C#N)cn1)C[C@](c1ccc(OCC(F)(F)F)cc1)(C(F)(F)F)NC2=O [II-17]
16,4.79,CS(=O)(=O)CC(=O)Nc1c2c(nn1-c1ccc(Cl)c(F)c1)C[C@]1(CCc3cc(OCC(F)(F)F)ccc31)NC2=O [II-137]
